Experimental data taken from ChEMBL document CHEMBL1201862, “PubChem BioAssay data set” (2004).
The source made the active and inactive calls.

Tests used:
[1] = inhibitors of firefly luciferase expression or activity, dose response, H4 neuroglioma cells, luminescence (AID 1990); type: functional, cell-based
BJ [2] = assay: cytotoxicity toward BJ-TERT fibroblasts, dose response, cell-based, RAS-independent, luminescence (AID 1933); type: functional; settings: Homo sapiens
[3] = Luminescence Cell-Based Dose Response HTS to Identify Inhibitors of 5'UTR Stem-Loop Driven Prion Protein mRNA Translation in H4 Neuroglioblastoma Cells. [Related pubchem assays: 1827 (Project Summary), 1813 (Primary HTS)]; type: functional
[4] = inhibitors of SNCA 5'UTR-driven reporter translation, confirmation, H4 neuroglioma cells, luminescence (AID 1988); type: functional, cell-based
BJ [5] = assay: cells; type: functional, cell-based; settings: Homo sapiens
BJ [6] = assay: cytotoxicity toward BJ-TERT-LT-ST fibroblasts, dose response, cell-based, RAS-independent, luminescence (AID 1935); type: functional; settings: Homo sapiens;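 further: BJ fibroblasts immortalized with TERT plus LT and ST oncogenes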
[7] = cytotoxicity toward DRD oncogenic fibroblasts, dose response, cell-based, non-viral oncogenic, luminescence (AID 1934); type: functional; settings: Homo sapiens
[8] = Shn3 3'UTR reporter inhibitors, dose response, cell-based, Clone20 osteoblasts, firefly luciferase, cherry-picked (AID 624132); type: functional;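 further: firefly luciferase luminescence from reporter carrying the Shn3 3'UTR in osteoblasts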
[9] = control 3'UTR Renilla luciferase suppression, dose response, counter-screen for Shn3 inhibitor project, cell-based, Clone20-Shn3RL, cherry-picked (AID 624133); type: functional
cells [10] = type: functional, cell-based
cells [11] = type: functional, cell-based; remark: listed apart in the source
[12] = test system: Streptococcus sp. 'group A'; assay: growth inhibition of control SK(-) GAS strain, dose response, counter-screen for streptokinase expression inhibitor project, luminescence, kanamycin, BacTiterGlo, confirmation (AID 1900); type: functional, organism-based
Streptokinase A = target: T1, Streptokinase A (Streptococcus pyogenes serotype M1, UniProt P10520); assay: S. pyogenes streptokinase expression inhibitors, potency, dose response, plasminogen activation absorbance, OD405 (AID 1914); type: functional, Streptococcus pyogenes M1 GAS;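 further: secreted streptokinase activity via plasminogen activation per viability signal from cell pellet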
T1 sequence (P10520 whole entry): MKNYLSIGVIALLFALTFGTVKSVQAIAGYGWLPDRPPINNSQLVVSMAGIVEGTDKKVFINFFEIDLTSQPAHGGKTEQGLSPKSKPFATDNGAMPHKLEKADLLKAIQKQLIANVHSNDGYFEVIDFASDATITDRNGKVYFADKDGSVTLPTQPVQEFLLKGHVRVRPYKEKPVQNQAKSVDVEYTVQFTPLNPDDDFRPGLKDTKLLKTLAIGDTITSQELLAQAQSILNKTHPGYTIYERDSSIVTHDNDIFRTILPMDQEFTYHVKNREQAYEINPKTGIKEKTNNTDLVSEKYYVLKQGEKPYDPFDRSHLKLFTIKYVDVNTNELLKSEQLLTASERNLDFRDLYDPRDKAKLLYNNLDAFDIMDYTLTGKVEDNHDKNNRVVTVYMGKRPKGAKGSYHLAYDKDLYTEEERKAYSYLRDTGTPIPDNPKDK

Streptococcus = assay: Group A Streptococcus viability loss, dose response, counter-screen for streptokinase expression inhibitor project, luminescence, BacTiterGlo (AID 1915); type: functional, organism-based;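 further: potency for reduction of bacterial viability or growth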
[13] = Luminescence Cell-Based Dose Retest to Confirm Inhibitors of Cancer Stem Cells. [Related pubchem assays (depositor defined):AID2717, AID2721]; type: functional; settings: Homo sapiens
Cytochrome P450 2C19 = Cytochrome P450 2C19 (Homo sapiens, UniProt P33261); assay: Cytochrome panel assay with activity outcomes. Panel member name: p450-cyp2c19 Compounds with AC50 equal or less than 10 uM are considered active; type: functional; settings: read-out: AC50
[14] = Luminescence Cell-Based Dose Confirmation HTS to Identify Activators of 5'UTR Stem-Loop Driven Alpha-Synuclein mRNA Translation in H4 Neuroglioblastoma Cells. [Related pubchem assays: 1829 (Project Summary), 1814 (Primary HTS)]; type: functional
[15] = Luminescence Cell-Based Dose Response HTS to Identify Activators of Luciferase Translation or Activity in H4 […] Cells. [Related pubchem assays: 1829 (Project Summary), 1814 (Primary HTS)]; type: functional
H4 = assay: Luminescence Cell-Based Dose Response HTS to Identify Activators of 5'UTR Stem-Loop Driven Prion Protein mRNA Translation in H4 Neuroglioblastoma Cells. [Related pubchem assays: 1829 (Project Summary), 1814 (Primary HTS)]; type: functional; settings: Homo sapiens
[16] = target: Luciferin 4-monooxygenase (Photinus pyralis, UniProt P08659); assay: firefly luciferase enzyme inhibitors, dose response, biochemical, luminescence (AID 1891)
[17] = Luminescence Cell-Based Dose Confirmation HTS to Identify Inhibitors of Platelet Dense Granule Release. [Related pubchem assays: 1663 (Primary HTS), 1678 (Summary of Project)]; type: functional
[18] = target: T2, RNA-binding protein pos-1 (Caenorhabditis elegans, UniProt G5EF15); assay: inhibitors of POS-1/mex-3 RNA binding, dose response, biochemical, fluorescence polarization (AID 1964);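 further: purified POS-1 fused to maltose binding protein made in E. coli; potency of compounds blocking POS-1 binding to fluorescent RNA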
T2 sequence (G5EF15 whole entry): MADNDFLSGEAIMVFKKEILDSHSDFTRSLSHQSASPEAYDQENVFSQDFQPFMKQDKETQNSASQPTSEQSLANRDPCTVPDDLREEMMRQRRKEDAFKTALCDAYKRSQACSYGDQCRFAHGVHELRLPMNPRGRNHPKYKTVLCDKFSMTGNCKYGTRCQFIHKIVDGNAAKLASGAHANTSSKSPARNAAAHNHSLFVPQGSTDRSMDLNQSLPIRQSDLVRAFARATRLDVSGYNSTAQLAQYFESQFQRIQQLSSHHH

[19] = target: T3, Zinc finger protein mex-5 (Caenorhabditis elegans, UniProt Q9XUB2); assay: MEX-5/TCR-2 RNA interaction inhibitors, dose response, biochemical, C. elegans, fluorescence polarization (AID 1960)
T3 sequence (Q9XUB2 whole entry): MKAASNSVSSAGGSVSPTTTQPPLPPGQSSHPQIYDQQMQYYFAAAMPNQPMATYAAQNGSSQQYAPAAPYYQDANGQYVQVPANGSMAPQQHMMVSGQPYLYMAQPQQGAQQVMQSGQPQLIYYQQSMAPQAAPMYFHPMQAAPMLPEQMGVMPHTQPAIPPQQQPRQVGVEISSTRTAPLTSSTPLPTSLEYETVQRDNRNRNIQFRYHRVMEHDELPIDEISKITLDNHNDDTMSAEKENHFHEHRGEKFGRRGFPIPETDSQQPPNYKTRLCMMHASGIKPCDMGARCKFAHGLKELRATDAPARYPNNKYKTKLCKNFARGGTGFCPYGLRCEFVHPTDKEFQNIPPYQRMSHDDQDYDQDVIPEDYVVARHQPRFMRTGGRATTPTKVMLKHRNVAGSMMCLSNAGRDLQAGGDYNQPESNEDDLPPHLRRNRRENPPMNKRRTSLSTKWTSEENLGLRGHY

Protein skinhead-1 = target: T4, Protein skinhead-1 (Caenorhabditis elegans, UniProt P34707); type: functional
T4 sequence (P34707 whole entry): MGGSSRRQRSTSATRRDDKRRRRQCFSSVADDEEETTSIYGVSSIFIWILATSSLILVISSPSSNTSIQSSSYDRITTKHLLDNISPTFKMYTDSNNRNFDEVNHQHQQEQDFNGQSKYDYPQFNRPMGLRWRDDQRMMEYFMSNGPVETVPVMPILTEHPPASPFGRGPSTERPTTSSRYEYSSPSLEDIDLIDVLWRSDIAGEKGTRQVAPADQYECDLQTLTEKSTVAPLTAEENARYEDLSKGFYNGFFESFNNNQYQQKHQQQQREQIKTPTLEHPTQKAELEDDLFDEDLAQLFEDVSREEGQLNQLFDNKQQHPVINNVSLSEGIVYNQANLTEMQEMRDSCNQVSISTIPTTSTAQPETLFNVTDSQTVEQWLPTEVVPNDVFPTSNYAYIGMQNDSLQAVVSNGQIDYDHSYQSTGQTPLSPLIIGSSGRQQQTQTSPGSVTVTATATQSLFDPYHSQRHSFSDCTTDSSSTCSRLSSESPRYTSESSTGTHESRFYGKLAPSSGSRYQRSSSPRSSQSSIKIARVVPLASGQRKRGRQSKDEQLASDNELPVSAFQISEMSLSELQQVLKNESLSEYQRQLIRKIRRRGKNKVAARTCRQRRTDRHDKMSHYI

Cytochrome P450 2D6 = Cytochrome P450 2D6 (Homo sapiens, UniProt P10635);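 further: CYP2D6 member of a cytochrome P450 panel assay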
INS1 = assay: beta cell apoptosis inhibitors, cytokine rescue, dose response, luminescence, retest (AID 449756); type: functional, cell-based; settings: Rattus norvegicus;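 further: cell death triggered by IL-1 beta plus TNF-alpha plus IFN-gamma mixture; protective hits raise ATP signal compared with cytokine alone wells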
H9c2 = assay: cells; type: functional, cell-based; settings: Rattus norvegicus, H9c2, Myocardium;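 further: confirmatory concentration-response retest of ultra-high-throughput screening hits for modulation of myocardial damage; cell death induced by hydrogen peroxide oxidative stress; compound pretreatment for 60 min then peroxide exposure for 2 h; potency is for protecting the cells against peroxide damage rather than for killing them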
Paired box protein Pax-8 = Paired box protein Pax-8 (Homo sapiens, UniProt Q06710); assay: inhibitors of PAX8-driven TPO luciferase reporter, dose response, RMG-I cells, cherry-pick (AID 687027); type: functional, cell-based;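 further: luciferase reporter driven by Pax8 target thyroperoxidase promoter measured by SteadyGlo luminescence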
[20] = inhibitors of HIV Env-driven cell fusion, dose response, cherry-pick (AID 652057); type: functional, cell-based
[21] = inhibitors of clade B AD8 Env fusion, dose response, cell-based, cherry-pick (AID 652062); type: functional;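 further: luciferase signal from cell-cell fusion driven by HIV-1 clade B AD8 Env; potency is for inhibitors of fusion seen as a drop in luminescence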

Paired box protein Pax-8, sequence (Q06710 whole entry, the tested form may be a part): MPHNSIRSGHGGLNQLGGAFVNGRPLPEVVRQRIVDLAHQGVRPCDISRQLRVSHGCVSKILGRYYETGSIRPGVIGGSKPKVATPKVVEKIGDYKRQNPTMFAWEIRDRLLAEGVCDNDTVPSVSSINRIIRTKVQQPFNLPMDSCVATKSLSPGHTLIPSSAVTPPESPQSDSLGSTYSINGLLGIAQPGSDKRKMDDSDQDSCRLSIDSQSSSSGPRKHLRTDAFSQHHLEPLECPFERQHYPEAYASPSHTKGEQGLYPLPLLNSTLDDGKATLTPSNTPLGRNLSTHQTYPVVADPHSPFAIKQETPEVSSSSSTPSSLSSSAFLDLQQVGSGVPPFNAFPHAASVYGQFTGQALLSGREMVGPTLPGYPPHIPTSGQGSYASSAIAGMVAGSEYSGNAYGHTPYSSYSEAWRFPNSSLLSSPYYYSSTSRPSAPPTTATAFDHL
Luciferin 4-monooxygenase, sequence (P08659 whole entry): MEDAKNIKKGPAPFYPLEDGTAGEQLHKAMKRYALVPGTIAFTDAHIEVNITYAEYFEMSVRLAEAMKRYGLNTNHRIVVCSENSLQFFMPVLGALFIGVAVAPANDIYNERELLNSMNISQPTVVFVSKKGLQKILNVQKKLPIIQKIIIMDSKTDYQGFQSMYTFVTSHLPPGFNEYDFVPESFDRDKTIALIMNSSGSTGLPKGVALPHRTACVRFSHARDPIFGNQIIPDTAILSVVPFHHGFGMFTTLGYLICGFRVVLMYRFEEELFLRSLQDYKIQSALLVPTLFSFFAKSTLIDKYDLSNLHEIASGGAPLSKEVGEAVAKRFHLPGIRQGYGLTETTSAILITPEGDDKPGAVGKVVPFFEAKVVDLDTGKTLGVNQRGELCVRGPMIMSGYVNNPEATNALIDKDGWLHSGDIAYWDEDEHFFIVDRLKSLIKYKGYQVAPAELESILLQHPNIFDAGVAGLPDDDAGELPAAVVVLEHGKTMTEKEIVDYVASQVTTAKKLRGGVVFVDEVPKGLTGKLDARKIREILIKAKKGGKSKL
Cytochrome P450 2D6, sequence (P10635 whole entry): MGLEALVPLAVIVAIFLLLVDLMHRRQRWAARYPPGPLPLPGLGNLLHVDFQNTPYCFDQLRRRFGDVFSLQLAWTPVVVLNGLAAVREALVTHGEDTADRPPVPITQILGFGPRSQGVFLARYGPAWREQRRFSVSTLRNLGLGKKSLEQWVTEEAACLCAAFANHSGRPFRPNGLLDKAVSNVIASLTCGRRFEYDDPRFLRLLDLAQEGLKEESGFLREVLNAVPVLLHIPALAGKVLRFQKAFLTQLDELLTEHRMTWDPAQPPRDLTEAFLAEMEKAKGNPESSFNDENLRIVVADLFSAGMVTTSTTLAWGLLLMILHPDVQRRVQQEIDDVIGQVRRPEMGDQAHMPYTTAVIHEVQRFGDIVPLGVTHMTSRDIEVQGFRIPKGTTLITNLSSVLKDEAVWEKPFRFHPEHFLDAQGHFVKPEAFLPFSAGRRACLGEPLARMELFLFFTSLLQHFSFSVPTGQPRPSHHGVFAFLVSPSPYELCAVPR
Cytochrome P450 2C19, sequence (P33261 whole entry): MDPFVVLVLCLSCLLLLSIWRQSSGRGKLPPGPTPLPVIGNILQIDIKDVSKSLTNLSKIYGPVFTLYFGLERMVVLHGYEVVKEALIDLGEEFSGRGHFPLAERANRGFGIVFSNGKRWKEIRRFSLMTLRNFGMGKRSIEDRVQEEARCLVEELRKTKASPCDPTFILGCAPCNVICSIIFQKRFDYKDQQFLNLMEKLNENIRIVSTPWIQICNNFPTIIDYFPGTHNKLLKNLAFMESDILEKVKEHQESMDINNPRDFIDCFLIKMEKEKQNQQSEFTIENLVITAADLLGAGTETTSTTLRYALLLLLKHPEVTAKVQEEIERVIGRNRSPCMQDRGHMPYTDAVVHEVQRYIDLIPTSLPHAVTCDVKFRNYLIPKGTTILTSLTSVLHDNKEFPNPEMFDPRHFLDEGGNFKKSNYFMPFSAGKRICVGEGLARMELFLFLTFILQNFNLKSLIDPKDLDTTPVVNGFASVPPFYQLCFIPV

Cc1ccc(C(=O)c2cc([N+](=O)[O-])ccc2N2CCOCC2)cc1
EC50 [1]: 7.57 µM (active) | EC50 (BJ [2]): 5.09 µM (active) | EC50 [3]: 7.18 µM (active) | EC50 [4]: 1.73 µM (active) | EC50 (BJ [5]): 36.1 µM (inconclusive) | EC50 (BJ [6]): 3.32 µM (inconclusive) | EC50 [7]: 2.27 µM (active)

N#C/C(=C(\O)Cc1ccccc1)c1nc2ccccc2[nH]1
AC50 [8]: > 70 µM (inactive) | AC50 [9]: 23.2 µM (active)

COc1ccc(CCNC(=O)CSc2nc(-c3ccc(OC)c(OC)c3)ccc2C#N)cc1
EC50 (cells [10]): > 350 µM (not active) | EC50 (cells [11]): > 350 µM (not active)

Cc1cccc2[nH]c3c(N4CC=C(c5ccc(F)cc5)CC4)ncnc3c12
EC50 [12]: 2.84 µM (active) | EC50 (Streptokinase A): > 150 µM (not active) | EC50 (Streptococcus): 7.98 µM (active) | AC50 [13]: 6.48 µM (active)

Cc1nc(C(=O)Nc2ccc(Cl)cc2Cl)nn1-c1cc(OC(C)C)c(Cl)cc1Cl
EC50 (cells [10]): > 350 µM (not active) | EC50 (cells [11]): > 350 µM (not active) | AC50 (Cytochrome P450 2C19): 7.08 µM (inconclusive)

O=C(NCc1ccco1)c1cc(-c2cccs2)on1
EC50 (cells [10]): 150 µM (active) | EC50 (cells [11]): > 350 µM (not active)

COc1ccccc1C(c1nnnn1CC1CCCO1)N1CCC(C(N)=O)CC1 (centres undefined)
EC50 (cells [10]): > 350 µM (not active) | EC50 (cells [11]): > 350 µM (not active)

O=C(CC1SC(N2CCCC2)=NC1=O)Nc1ccc(C(=O)Nc2ncccc2O)cc1 (centres undefined)
EC50 [14]: 16.5 µM (active) | EC50 [15]: 11.1 µM (active) | EC50 (cells [10]): 40.5 µM (active) | EC50 (H4): 12.3 µM (active) | EC50 (cells [11]): > 350 µM (not active)

COc1ccc(C(=O)Nc2ccc(N3CCCC3)cc2)cc1OC
EC50 (BJ [2]): 14.9 µM (active) | EC50 (BJ [5]): 12.9 µM (active) | EC50 [16]: 1.45 µM (active) | EC50 [17]: 1.03 µM (active) | EC50 (BJ [6]): > 150 µM (not active) | EC50 [7]: 11.2 µM (active)

Cc1ccc(N=C(S)Nc2ccc(C(C)C)cc2)cc1S(=O)(=O)N1CCCCCC1
EC50 [12]: 13.2 µM (active) | EC50 (Streptokinase A): > 150 µM (not active) | EC50 (Streptococcus): > 150 µM (not active) | AC50 [13]: 2.1 µM (active)

CCCNc1c(F)c(F)c2c(C)c3ccccc3nc2c1F
EC50 [18]: > 300 µM (inconclusive) | EC50 [19]: 1.97 µM (active) | IC50 (Protein skinhead-1): > 100 µM (inactive) | AC50 (Cytochrome P450 2D6): 25.1 µM (inconclusive)

COC(=O)c1ccc(COc2ccccc2/C=C(\C#N)C(=O)Nc2c(C)cccc2C)cc1
AC50 [13]: 2.46 µM (active) | AC50 (INS1): 28.4 µM (active)

COc1ccc(-c2cc(C(=O)OCC(=O)c3cccc([N+](=O)[O-])c3)c3cc(C)ccc3n2)cc1
EC50 (BJ [2]): > 150 µM (not active) | EC50 (BJ [5]): > 150 µM (not active) | EC50 (BJ [6]): > 150 µM (not active) | EC50 [7]: > 150 µM (not active)

O=c1c2ccccc2oc2ccc(C#CC3(O)CCCCC3)cc12
AC50 [13]: 6.5 µM (active)

COc1cccc(/C=N/Nc2nc3ccccc3n3cnnc23)c1
EC50 [1]: > 120 µM (not active) | EC50 (cells [10]): > 350 µM (not active) | EC50 [3]: > 120 µM (not active) | EC50 [4]: 15.6 µM (active) | EC50 (cells [11]): 191 µM (active) | IC50 (H9c2): > 79 µM (inactive)

Cc1ccc(/C=N/NC(=O)COc2ccccc2-c2ccccc2)cc1
EC50 (BJ [2]): 0.643 µM (inconclusive) | EC50 (BJ [5]): 0.605 µM (inconclusive) | EC50 (BJ [6]): 0.435 µM (inconclusive) | EC50 [7]: 0.657 µM (active) | AC50 (Paired box protein Pax-8): 0.77 µM (active)

CCC(=O)N(C)C[C@@H]1Oc2cc(C#Cc3ccccc3)ccc2S(=O)(=O)N([C@@H](C)CO)C[C@H]1C
AC50 [20]: 26.2 µM (active) | AC50 [21]: 30.3 µM (active)

Cc1ccc(S(=O)(=O)N(C)C[C@@H]2Oc3ccc(NC(=O)Cc4ccccc4)cc3CC(=O)N([C@H](C)CO)C[C@@H]2C)cc1
AC50 [20]: < 0.26 µM (active) | AC50 [21]: 2.32 µM (active)

O=C(COc1ccc(-c2ccccc2)cc1)N/N=C/c1cc(O)ccc1Br
EC50 [12]: 2.51 µM (active) | EC50 (Streptokinase A): 5.71 µM (active) | EC50 (Streptococcus): 4.98 µM (active) | AC50 [13]: 4.31 µM (active)

O=C(CCCOc1ccc(Cl)cc1Cl)N/N=C/c1ccccc1O
EC50 (cells [10]): 11.8 µM (active) | EC50 (cells [11]): > 350 µM (not active)
